The source of these data is patent EP4434996A1, “MICELLES IN CANCER TREATMENT” (Commissariat à l'Energie Atomique et aux Energies …, priority 2023, dated 2024).

“Also recorded” adds a separate entry of the source.

Data set [1] in a line: Solubility in water by UV measurement. In kind it is physicochemical. Particulars: without micelles.
Data set [2] in a line: Detection of singlet oxygen with DPBF under 740 nm irradiation. In kind it is physicochemical. On the procedure: Preparation of DPBF@C18-PEG2k and TPBC@C18-PEG2k. To a solution of C18-Fc-PEG2k (10 mg mL^-1) in water (1 mL) was added a solution of TPBC (bacteriochlorin) or DPBF (1,3-diphenylisobenzofuran) (12.5 µL, 1 mg mL^-1) in chloroform (1 mL). The mixture was sonicated using an ultrasound sonicator probe (power 40%, 10 min, pulse) allowing TPBC or DPBF to be gradually encapsulated by evaporation of chloroform via heating of the probe. The resulting TPBC/DPBF@C18-Fc-PEG2k colloidal suspension was filtered on 0.45 µm nylon membrane to eliminate any free TPBC or DPBF from the medium.
Preparation of TPBC-DPBF@C18-PEG2k. To a solution of C18-Fc-PEG2k (10 mg mL^-1) in water (1 mL) was added a solution of TPBC (12.5 µL, 1 mg mL^-1) in chloroform (1 mL). The mixture was sonicated using an ultrasound sonicator probe (power 40%, 10 min, pulse) allowing TPBC to be gradually encapsulated by evaporation of chloroform via heating of the probe. […]
1,3-Diphenylisobenzofuran (DPBF) is a reagent for detecting singlet oxygen. […] The reaction was monitored using UV-vis spectroscopy (Fig. 8B). […]
First, we ensured that both TPBC and DPBF could be encapsulated into our C18-PEG2k micelles individually. […] TPBC-DPBF@C18-PEG2k was then irradiated under 740 nm light and the photoreaction was monitored by UV-vis spectroscopy every 20 sec (Fig. 9C).

With `c1ccc(-c2oc(-c3ccccc3)c3ccccc23)cc1` [DPBF, 1,3-diphenylisobenzofuran], the solubility in water result in data set [1] was “not soluble in water; also recorded: insoluble in water”. Also, the “stability of DPBF under NIR light” value in data set [2] (in DMSO, several minutes, without TPBC) was “no alteration was observed”.
Turning to `c1ccc(-c2c3nc(c(-c4ccccc4)c4ccc([nH]4)c(-c4ccccc4)c4nc(c(-c5ccccc5)c5ccc2[nH]5)CC4)CC3)cc1` [TPBC, tetraphenylbacteriochlorin], the solubility in water entry in data set [1] was “not soluble in water; also recorded: insoluble in water”. In data set [2] (DPBF and TPBC in DMSO), the “time to complete degradation of DPBF” value amounted to 60 s.
